Test results taken from patent US9598424B2 (Takeda Pharmaceutical Company Limited, priority 2014, dated 2017).

Tests used:
TBK1 = target: T1, TBK1 (Homo sapiens, UniProt Q9UHD2); experiment: Inhibition of TBK1 in Cells (TLR3 driven ISRE β-lactamase reporter assay); type: cell-based; conditions: poly IC-LMW stimulation 16 hrs; -log(EC50), EC50 molar; read-out: Inhibition of TBK1 in cells pEC50 (EC) (converted)
T1 construct: host or cells: RA1-ISRE beta-lactamase reporter cells
T1 sequence (Q9UHD2 1-729): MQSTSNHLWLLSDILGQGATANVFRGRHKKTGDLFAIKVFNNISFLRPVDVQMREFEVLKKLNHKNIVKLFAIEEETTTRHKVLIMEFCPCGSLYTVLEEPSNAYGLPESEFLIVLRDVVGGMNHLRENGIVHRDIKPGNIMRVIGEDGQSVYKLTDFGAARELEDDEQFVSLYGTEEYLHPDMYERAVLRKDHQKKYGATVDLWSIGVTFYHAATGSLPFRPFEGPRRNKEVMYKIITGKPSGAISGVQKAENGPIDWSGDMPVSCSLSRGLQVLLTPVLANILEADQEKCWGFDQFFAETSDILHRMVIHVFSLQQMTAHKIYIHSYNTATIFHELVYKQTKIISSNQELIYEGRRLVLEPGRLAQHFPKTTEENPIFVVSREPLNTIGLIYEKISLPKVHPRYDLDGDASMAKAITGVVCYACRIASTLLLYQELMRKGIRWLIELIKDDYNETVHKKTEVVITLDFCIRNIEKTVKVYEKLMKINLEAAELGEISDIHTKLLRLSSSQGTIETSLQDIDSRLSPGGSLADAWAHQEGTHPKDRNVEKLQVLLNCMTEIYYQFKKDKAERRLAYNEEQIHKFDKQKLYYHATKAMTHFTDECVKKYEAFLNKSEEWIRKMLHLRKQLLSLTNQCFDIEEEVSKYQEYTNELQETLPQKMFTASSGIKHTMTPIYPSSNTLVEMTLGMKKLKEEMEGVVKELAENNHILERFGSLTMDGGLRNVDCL
Protocol: TBK1 inhibition is determined using a TLR3 driven RA1-ISRE β-lacatamase reporter assay (Life Technologies). In the assay 50,000 cells/well are plated in black clear bottom 384 well plate. Each test compound is prepared in DMSO using 2.5-fold serial dilutions for 11 data points, which are then added to the media. Cells are stimulated with 0.15 mg/ml poly IC-LMW (Invivogen) for 16 hrs. Reporter activity is detected using the LiveBLAzer-FRET B/G CCF4-AM substrate (Life Technologies) and the plate is read using the Spectramax M5 instrument. Corresponding EC50 values are calculated by non-linear curve fitting of the compound concentrations and percent of inhibition to the standard EC50 equation and reported as pEC50, i.e., −log(EC50), where EC50 is the molar concentration.

Full length human TBK1 = target: T2, Full length human TBK1 (Homo sapiens, UniProt Q9UHD2); experiment: Inhibition of TBK1 Enzyme (Caliper microfluidic assay); type: biochemical; conditions: 25 μM ATP, 60 min at RT; -log(IC50), IC50 molar; read-out: TBK1 Inhibition (pIC50) (converted)
T2 construct: Full length human TBK1 with an N-terminal His-tag; His-tag (N); made in house; host or cells: Sf9 insect cells (baculovirus, pFastBac1)
T2 sequence (Q9UHD2 1-729): T1 sequence (Q9UHD2 1-729)
Protocol: Full length human TBK1 with an N-terminal His-tag was cloned into the pFastBacl vector and was transfected into Sf9 cells. 72 hours later the virus was harvested and amplified through two additional rounds of infections. Then 400 ml of the resulting virus stock was used to infect 10L of Sf9 cells at a density of 2×10^6 cells/ml. Cell pellets were harvested 48 hours post infection and were lysed by freeze-thaw, homogenization and sonication in binding buffer (25 mM Tris pH7.6, 1 M NaCl, 10 mM imidazole, 0.5 mM TCEP) plus 0.1% Triton X-100 and complete protease inhibitor cocktail. The lysate was spun and the supernatant was purified with a HisTrap FF crude and a Superdex 200 pg column.
TBK1 inhibition is determined using a 384 well plate format in buffer containing 20 mM Hepes, pH 7.4, 10 mM MgCl2, 1 mM EDTA, 0.01% Brij-L23, 1 mM DTT. Each test compound is prepared in DMSO using 2.5-fold serial dilutions for 11 data points, which are added to the buffer so that each dilution contains 1% DMSO. To each well is added 2 μL of 1 μm 5FAM-DRHDSGLDSMKDE-NH2 (in buffer), 2 μL of diluted test compound (1% DMSO in buffer), and 5 μL of 3 nM TBK1 and 25 μM ATP (in buffer). The reaction mixture is incubated at RT for 60 min, and quenched by adding 20 mM Hepes, pH 7.4, 10 mM MgCl2, 1 mM EDTA, 0.01% Brij-L23, 1 mM DTT+25 mM EDTA. To quantify the fluorescent-labeled substrate and product following reaction, the test plate is loaded on a Caliper LC-3000, which measures percent of conversion by microfluidic-based separation. Corresponding IC50 values are calculated by non-linear curve fitting of the compound concentrations and percent of inhibition to the standard IC50 equation and reported as pIC50, i.e., −log(IC50), where IC50 is the molar concentration.

SMILES | EC50 (TBK1) | IC50 (Full length human TBK1)
O=C(NC1CCOC1=O)c1nc(-c2ccc3nc(NC(=O)C4CC4)cn3c2)cs1 (stereo not drawn) [Example 94, 4-(2-(cyclopropanecarboxamido)imidazo[1,2-a]pyridin-6-yl)-N-(2-oxotetrahydrofuran-3-yl)thiazole-2-carboxamide] | 5500 nM | 200 nM
O=C(Nc1cn2cc(-c3csc(C(=O)N4CCC[C@@H]4C(F)(F)F)c3)ccc2n1)C1CC1 [Example 62, (R)-N-(6-(5-(2-(trifluoromethyl)pyrrolidine-1-carbonyl)thiophen-3-yl)imidazo[1,2-a]pyridin-2-yl)cyclopropanecarboxamide] | 74.1 nM | 3.98 nM
O=C(NCC(F)(F)F)c1cc(-c2ccc3nc(NC(=O)C4CC4)cn3c2)sn1 [Example 26, 5-(2-(cyclopropanecarboxamido)imidazo[1,2-a]pyridin-6-yl)-N-(2,2,2-trifluoroethyl)isothiazole-3-carboxamide] | 759 nM | 79.4 nM
O=C(NC1CCCOC1)c1cc(-c2ccc3nc(NC(=O)C4CC4)cn3c2)cs1 (stereo not drawn) [Example 67, 4-(2-(cyclopropanecarboxamido)imidazo[1,2-a]pyridin-6-yl)-N-(tetrahydro-2H-pyran-3-yl)thiophene-2-carboxamide] | 1170 nM | 63.1 nM
O=C(NC1CCCOC1)c1nc(-c2ccc3nc(NC(=O)C4CC4)cn3c2)cs1 (stereo in doubt) [Example 88, (S)-4-(2-(cyclopropanecarboxamido)imidazo[1,2-a]pyridin-6-yl)-N-(tetrahydro-2H-pyran-3-yl)thiazole-2-carboxamide] | 1550 nM | 63.1 nM
O=C(Nc1cn2cc(-c3csc(C(=O)N4CCCC4C(F)(F)F)c3)ccc2n1)C1CC1 (stereo not drawn) [Example 60, N-(6-(5-(2-(trifluoromethyl)pyrrolidine-1-carbonyl)thiophen-3-yl)imidazo[1,2-a]pyridin-2-yl)cyclopropanecarboxamide] | 234 nM | 15.8 nM
O=C(NCC(F)F)c1ccn(-c2cn3cc(NC(=O)C4CC4)nc3cn2)n1 [Example 38, 1-(2-(cyclopropanecarboxamido)imidazo[1,2-a]pyrazin-6-yl)-N-(2,2-difluoroethyl)-1H-pyrazole-3-carboxamide] | 1170 nM | 25.1 nM
COC1CCN(C(=O)c2nc(-c3ccc4nc(NC(=O)C5CC5)cn4c3)cs2)C1 (stereo not drawn) [Example 97, N-(6-(2-(3-methoxypyrrolidine-1-carbonyl)thiazol-4-yl)imidazo[1,2-a]pyridin-2-yl)cyclopropanecarboxamide] | 1550 nM | 126 nM
C[C@H](NC(=O)c1nc(-c2ccc3nc(NC(=O)C4CC4)cn3c2)c[nH]1)C(F)(F)F [Example 10, 4-{2-cyclopropaneamidoimidazo[1,2-a]pyridin-6-yl}-N-[(2S)-1,1,1-trifluoropropan-2-yl]-1H-imidazole-2-carboxamide] | > 50100 nM | 316 nM
O=C(NCC(F)F)c1nc(-c2ccc3nc(NC(=O)C4CC4)cn3n2)cs1 [Example 8, 4-(2-(cyclopropanecarboxamido)imidazo[1,2-b]pyridazin-6-yl)-N-(2,2-difluoroethyl)thiazole-2-carboxamide] | 9120 nM | 200 nM
O=C(NCC(F)(F)F)c1cc(-c2ccc3nc(NC(=O)C4CC4)cn3c2)[nH]n1 [Example 51, 5-(2-(cyclopropanecarboxamido)imidazo[1,2-a]pyridin-6-yl)-N-(2,2,2-trifluoroethyl)-1H-pyrazole-3-carboxamide] | 490 nM | 7.94 nM
O=C(NCC(F)(F)F)c1ccn(-c2ccc3nc(NC(=O)C4CC4)cn3n2)n1 [Example 39, 1-(2-(cyclopropanecarboxamido)imidazo[1,2-b]pyridazin-6-yl)-N-(2,2,2-trifluoroethyl)-1H-pyrazole-3-carboxamide] | > 50100 nM | 251 nM
O=C(N[C@H]1CCOC1)c1cc(-c2ccc3nc(NC(=O)C4CC4)cn3c2)cs1 [Example 72, (S)-4-(2-(cyclopropanecarboxamido)imidazo[1,2-a]pyridin-6-yl)-N-(tetrahydrofuran-3-yl)thiophene-2-carboxamide] | 1200 nM | 12.6 nM
CC(NC(=O)c1nc(-c2ccc3nc(NC(=O)C4CC4)cn3c2)c[nH]1)C(F)(F)F (stereo not drawn) [Example 24, 4-(2-(cyclopropanecarboxamido)imidazo[1,2-a]pyridin-6-yl)-N-(1,1,1-trifluoropropan-2-yl)-1H-imidazole-2-carboxamide] | 468 nM | 25.1 nM
CC1CCCN1C(=O)c1cc(-c2ccc3nc(NC(=O)C4CC4)cn3c2)n[nH]1 (stereo not drawn) [Example 123, N-(6-(5-(2-methylpyrrolidine-1-carbonyl)-1H-pyrazol-3-yl)imidazo[1,2-a]pyridin-2-yl)cyclopropanecarboxamide] | 2190 nM | 100 nM
O=C(NC1COCC1O)c1nc(-c2ccc3nc(NC(=O)C4CC4)cn3c2)cs1 (stereo not drawn) [Example 109, 4-(2-(cyclopropanecarboxamido)imidazo[1,2-a]pyridin-6-yl)-N-(4-hydroxytetrahydrofuran-3-yl)thiazole-2-carboxamide] | 3240 nM | 63.1 nM
O=C(N[C@H]1CCC[C@H]1O)c1nc(-c2ccc3nc(NC(=O)C4CC4)cn3c2)cs1 [Example 89, 4-(2-(cyclopropanecarboxamido)imidazo[1,2-a]pyridin-6-yl)-N-((1S, 2R)-2-hydroxycyclopentyl)thiazole-2-carboxamide] | 1020 nM | 31.6 nM
O=C(NC1CCOC1)c1cc(-c2ccc3nc(NC(=O)C4CC4)cn3c2)cs1 (stereo not drawn) [Example 70, 4-(2-(cyclopropanecarboxamido)imidazo[1,2-a]pyridin-6-yl)-N-(tetrahydrofuran-3-yl)thiophene-2-carboxamide] | 891 nM | 31.6 nM
O=C(N[C@H]1CCCOC1)c1cc(-c2ccc3nc(NC(=O)C4CC4)cn3c2)cs1 [Example 68, (S)-4-(2-(cyclopropanecarboxamido)imidazo[1,2-a]pyridin-6-yl)-N-(tetrahydro-2H-pyran-3-yl)thiophene-2-carboxamide] | 1020 nM | 10 nM
CC(C)C(NC(=O)c1cc(-c2ccc3nc(NC(=O)C4CC4)cn3c2)cs1)C(F)(F)F (stereo not drawn) [Example 117, 4-(2-(cyclopropanecarboxamido)imidazo[1,2-a]pyridin-6-yl)-N-(1,1,1-trifluoro-3-methylbutan-2-yl)thiophene-2-carboxamide] | 6460 nM | 50.1 nM
O=C(NCC(F)(F)F)c1nc(-c2cn3cc(NC(=O)C4CC4)nc3cn2)cs1 [Example 6, 4-(2-(cyclopropanecarboxamido)imidazo[1,2-a]pyrazin-6-yl)-N-(2,2,2-trifluoroethyl)thiazole-2-carboxamide] | 355 nM | 7.94 nM
